Reference: ChEMBL document CHEMBL1201862, “PubChem BioAssay data set” (2004)
Blank lines part the entries; values can stand above or below the compound they belong to. Active and inactive are the calls of the source.

Experiments:
[1] = miR-122 activators in hepatoma reporter cells, dose response, cell-based, Huh7 psiCHECK-miR122, Renilla luciferase, cherry-picked (AID 651956); assay type: functional;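 also: huh7 hepatoma cells stably carrying a psiCHECK-2 miR-122 sensor plasmid; renilla luciferase signal reporting endogenous miR-122 activity after 48 h compound exposure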
[2] = HEK293T cytotoxicity, dose response, cytotoxicity control for miR-122 modulator project, cell-based, activator set, cherry-pick (AID 720690); assay type: functional;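 also: HEK293T human cells scored for general mammalian cytotoxicity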
Vero = assay: Vero cell toxicity, dose response, cytotoxicity control, plate reader, cherry-pick samples (AID 687020); assay type: functional, cell-based; conditions: Chlorocebus sabaeus
[3] = T. cruzi growth inhibition in host cells, dose response, cell-based, plate reader, dry powder, set 2 (AID 652275); assay type: functional
Fatty acid synthase = Fatty acid synthase (Homo sapiens, UniProt P49327); assay: FAS thioesterase domain inhibitors, SAR follow-up, biochemical, endpoint fluorescence intensity, powder samples (AID 652164); assay type: functional
[4] = biological target: T1, High affinity choline transporter 1 (Homo sapiens, UniProt Q9GZV3); assay: CHT choline uptake inhibitors, dose response, cell-based, HEK-293 hCHT, [3H]-choline uptake (AID 652177); assay type: functional
T1 sequence (Q9GZV3 whole entry): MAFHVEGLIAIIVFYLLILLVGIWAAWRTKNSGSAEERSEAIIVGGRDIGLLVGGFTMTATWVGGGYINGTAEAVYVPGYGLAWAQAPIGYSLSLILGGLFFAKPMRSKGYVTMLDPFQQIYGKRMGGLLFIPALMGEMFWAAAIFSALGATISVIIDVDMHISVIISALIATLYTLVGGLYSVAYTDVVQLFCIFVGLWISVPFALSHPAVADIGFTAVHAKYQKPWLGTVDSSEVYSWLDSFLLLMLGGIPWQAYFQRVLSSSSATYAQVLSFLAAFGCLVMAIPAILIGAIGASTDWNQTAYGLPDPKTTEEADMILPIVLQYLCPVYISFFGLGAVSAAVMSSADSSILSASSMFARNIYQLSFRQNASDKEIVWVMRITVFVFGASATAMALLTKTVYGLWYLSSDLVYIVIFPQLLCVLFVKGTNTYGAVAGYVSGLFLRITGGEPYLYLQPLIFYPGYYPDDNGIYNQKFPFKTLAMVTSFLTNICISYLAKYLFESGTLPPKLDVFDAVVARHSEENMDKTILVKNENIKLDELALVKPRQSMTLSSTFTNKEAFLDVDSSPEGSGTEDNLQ

[5] = cytotoxicity in HepG2 cells, dose response, cytotoxicity control, cell-based, cherry-picked samples (AID 1053183); assay type: functional
[6] = T. cruzi intracellular amastigote growth inhibition, dose response, imaging, CA-I/72 strain, bovine embryo skeletal muscle, dry powder (AID 651885); assay type: functional, cell-based
Large T antigen = Large T antigen (Simian virus 40, UniProt P03070); assay type: functional, Betapolyomavirus macacae;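 also: Confirmatory-stage PubChem screen for compounds that inhibit SV40 T antigen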
[7] = biological target: FAD-linked sulfhydryl oxidase ALR (Homo sapiens, UniProt P55789); assay: inhibitors of human ALR sulfhydryl oxidase, dose response, biochemical, H2O2 detection, luminescence, cherry-pick (AID 493248)
Protein skinhead-1 = biological target: T2, Protein skinhead-1 (Caenorhabditis elegans, UniProt P34707); assay type: functional
T2 sequence (P34707 whole entry): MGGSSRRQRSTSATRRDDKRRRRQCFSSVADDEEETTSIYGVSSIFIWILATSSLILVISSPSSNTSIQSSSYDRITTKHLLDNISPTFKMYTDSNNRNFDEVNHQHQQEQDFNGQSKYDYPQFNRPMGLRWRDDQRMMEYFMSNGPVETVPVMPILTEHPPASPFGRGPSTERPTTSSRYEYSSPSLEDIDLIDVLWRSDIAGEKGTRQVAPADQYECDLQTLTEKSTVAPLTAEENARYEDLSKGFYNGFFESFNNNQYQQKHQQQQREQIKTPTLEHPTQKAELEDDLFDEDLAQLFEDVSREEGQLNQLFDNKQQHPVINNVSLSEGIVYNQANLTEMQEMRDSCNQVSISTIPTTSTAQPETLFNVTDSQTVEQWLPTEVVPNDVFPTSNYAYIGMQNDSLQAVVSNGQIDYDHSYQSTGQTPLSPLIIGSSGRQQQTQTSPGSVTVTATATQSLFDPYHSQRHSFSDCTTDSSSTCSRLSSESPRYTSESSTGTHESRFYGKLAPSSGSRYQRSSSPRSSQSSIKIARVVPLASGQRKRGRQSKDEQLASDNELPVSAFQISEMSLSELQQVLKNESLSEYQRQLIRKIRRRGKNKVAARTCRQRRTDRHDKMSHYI

Mu-type opioid receptor = Mu-type opioid receptor (Homo sapiens, UniProt P35372); assay type: functional, cell-based;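 also: U2OS cells with beta-arrestin recruitment to OPRM1 by beta-gal complementation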
[8] = biological target: 5-hydroxytryptamine receptor 2A (Mus musculus, UniProt P35363); assay type: functional, cell-based;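 also: CHO-K1 cells with tagged receptor and beta-arrestin; agonist potency measured as compound-induced activation of the receptor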
Galanin receptor type 3 = Galanin receptor type 3 (Homo sapiens, UniProt O60755); assay: Fluorescence-based cell-based primary high throughput dose response assay to identify antagonists of the Galanin Receptor 3 (GalR3).; assay type: functional
[9] = biological target: T3, Trace amine-associated receptor 1 (Homo sapiens, UniProt Q96RJ0); assay: Fluorescence-based cell-based high throughput dose response assay to identify agonists of the human trace amine associated receptor 1 (TAAR1).; assay type: functional
T3 sequence (Q96RJ0 whole entry): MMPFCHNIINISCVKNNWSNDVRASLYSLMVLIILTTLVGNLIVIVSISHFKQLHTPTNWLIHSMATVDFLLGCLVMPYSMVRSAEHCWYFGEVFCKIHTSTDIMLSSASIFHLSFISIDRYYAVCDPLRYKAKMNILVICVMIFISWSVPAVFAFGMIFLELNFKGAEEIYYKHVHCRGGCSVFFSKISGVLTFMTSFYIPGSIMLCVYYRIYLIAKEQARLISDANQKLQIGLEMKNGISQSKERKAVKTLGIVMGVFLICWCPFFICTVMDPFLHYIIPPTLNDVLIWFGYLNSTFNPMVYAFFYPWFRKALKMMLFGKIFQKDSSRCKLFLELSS

[10] = biological target: T3, Trace amine-associated receptor 1; assay: Counterscreen for agonists of the human trace amine associated receptor 1 (hTAAR1): Fluorescence-based cell-based high throughput dose response assay to identify hTAAR1 agonist that also desensitize TAAR1 receptor response.; assay type: functional

Fatty acid synthase, sequence (P49327 whole entry, the tested form may be a part): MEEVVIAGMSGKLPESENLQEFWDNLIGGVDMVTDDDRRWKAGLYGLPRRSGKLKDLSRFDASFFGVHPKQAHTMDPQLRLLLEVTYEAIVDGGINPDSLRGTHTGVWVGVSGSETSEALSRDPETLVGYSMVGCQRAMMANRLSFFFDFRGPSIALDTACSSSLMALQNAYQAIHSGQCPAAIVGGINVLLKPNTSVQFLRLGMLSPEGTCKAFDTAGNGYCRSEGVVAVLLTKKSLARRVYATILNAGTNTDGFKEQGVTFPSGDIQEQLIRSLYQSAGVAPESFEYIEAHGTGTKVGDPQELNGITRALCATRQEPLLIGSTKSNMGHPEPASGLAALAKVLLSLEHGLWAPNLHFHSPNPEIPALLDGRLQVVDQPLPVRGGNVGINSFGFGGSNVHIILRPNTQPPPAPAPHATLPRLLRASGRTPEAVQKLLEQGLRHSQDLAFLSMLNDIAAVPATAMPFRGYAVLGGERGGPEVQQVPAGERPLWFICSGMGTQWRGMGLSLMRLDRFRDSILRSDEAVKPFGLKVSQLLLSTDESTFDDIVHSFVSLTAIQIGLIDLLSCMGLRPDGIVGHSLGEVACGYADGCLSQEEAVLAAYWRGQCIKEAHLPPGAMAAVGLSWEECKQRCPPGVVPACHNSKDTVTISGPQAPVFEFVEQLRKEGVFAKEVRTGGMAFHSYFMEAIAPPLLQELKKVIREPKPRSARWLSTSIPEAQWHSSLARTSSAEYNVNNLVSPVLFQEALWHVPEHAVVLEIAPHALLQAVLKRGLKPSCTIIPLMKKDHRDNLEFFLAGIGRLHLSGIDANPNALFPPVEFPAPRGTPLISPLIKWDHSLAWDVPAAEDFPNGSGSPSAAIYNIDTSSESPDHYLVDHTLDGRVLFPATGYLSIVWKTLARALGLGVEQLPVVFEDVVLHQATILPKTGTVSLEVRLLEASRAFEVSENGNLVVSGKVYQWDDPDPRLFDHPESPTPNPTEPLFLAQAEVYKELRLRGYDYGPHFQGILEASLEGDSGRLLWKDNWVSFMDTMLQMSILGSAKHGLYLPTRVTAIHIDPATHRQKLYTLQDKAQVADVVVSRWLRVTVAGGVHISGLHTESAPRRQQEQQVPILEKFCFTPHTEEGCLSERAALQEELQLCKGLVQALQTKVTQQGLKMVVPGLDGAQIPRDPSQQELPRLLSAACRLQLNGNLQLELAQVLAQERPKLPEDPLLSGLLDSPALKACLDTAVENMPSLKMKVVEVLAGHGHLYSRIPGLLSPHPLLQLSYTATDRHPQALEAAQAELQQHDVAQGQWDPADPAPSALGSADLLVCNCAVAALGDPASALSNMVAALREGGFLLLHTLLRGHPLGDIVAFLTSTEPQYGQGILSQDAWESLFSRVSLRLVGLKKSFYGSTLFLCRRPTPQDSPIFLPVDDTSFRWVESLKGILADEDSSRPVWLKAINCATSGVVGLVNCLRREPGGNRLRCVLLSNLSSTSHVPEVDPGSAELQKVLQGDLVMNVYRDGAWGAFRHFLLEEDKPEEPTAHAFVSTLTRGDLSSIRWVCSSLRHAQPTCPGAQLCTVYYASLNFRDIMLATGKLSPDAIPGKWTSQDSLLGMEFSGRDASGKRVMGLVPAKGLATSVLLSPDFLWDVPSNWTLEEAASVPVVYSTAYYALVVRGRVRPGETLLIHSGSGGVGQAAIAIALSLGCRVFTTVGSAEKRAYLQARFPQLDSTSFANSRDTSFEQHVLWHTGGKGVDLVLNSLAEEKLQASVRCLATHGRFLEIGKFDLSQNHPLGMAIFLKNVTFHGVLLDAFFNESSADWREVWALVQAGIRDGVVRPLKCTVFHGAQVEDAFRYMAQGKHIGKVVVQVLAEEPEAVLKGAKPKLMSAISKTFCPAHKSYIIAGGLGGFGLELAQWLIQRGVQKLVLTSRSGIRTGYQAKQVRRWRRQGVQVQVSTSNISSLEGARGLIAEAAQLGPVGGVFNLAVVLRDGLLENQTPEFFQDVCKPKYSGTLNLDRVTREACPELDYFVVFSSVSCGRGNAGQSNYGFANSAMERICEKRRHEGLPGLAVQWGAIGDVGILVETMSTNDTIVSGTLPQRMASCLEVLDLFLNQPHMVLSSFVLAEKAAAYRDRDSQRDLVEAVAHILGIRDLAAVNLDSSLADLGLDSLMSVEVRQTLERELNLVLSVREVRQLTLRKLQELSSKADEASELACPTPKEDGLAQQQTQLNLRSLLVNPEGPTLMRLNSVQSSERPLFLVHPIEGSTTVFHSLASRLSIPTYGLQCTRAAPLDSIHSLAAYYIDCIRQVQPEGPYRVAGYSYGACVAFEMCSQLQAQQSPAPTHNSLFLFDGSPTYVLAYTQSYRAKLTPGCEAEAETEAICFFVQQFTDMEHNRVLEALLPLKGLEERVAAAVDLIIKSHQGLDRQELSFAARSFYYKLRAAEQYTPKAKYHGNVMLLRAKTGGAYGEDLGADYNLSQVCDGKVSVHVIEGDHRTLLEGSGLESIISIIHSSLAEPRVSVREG
FAD-linked sulfhydryl oxidase ALR, sequence (P55789 whole entry): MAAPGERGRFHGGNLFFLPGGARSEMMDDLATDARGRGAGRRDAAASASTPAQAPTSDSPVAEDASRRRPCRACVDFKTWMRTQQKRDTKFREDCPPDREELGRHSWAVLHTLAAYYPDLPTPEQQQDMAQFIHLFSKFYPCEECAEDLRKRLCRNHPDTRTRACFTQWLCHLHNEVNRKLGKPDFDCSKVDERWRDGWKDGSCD
Large T antigen, sequence (P03070 whole entry): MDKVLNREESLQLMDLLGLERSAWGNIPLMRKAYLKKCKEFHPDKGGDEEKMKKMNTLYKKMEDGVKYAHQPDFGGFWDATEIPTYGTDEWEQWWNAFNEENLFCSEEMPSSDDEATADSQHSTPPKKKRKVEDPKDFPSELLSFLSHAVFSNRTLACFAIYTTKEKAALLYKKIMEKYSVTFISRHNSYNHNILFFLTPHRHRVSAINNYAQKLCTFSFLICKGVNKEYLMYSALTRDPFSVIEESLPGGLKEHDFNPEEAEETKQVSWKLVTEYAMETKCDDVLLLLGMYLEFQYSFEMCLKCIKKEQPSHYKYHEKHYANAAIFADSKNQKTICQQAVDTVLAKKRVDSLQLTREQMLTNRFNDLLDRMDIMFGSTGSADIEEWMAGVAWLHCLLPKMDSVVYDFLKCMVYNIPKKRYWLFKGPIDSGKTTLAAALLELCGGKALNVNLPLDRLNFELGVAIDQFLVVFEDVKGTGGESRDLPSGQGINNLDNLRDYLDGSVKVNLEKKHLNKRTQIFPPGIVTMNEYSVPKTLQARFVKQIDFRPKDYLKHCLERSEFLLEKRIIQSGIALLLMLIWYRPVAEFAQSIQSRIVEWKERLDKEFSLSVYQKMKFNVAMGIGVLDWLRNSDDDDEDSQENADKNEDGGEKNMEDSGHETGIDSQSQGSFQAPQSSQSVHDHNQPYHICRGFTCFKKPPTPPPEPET
Mu-type opioid receptor, sequence (P35372 whole entry): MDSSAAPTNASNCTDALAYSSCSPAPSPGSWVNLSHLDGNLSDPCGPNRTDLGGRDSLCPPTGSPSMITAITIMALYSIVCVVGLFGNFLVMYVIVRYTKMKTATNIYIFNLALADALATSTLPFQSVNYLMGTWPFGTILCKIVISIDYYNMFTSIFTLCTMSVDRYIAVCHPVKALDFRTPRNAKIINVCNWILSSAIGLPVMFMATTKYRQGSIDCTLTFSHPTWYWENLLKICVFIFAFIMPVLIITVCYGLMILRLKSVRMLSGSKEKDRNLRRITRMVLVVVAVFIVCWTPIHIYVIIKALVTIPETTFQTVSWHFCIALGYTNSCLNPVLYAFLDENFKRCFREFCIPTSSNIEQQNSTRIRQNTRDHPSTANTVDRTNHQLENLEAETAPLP
5-hydroxytryptamine receptor 2A, sequence (P35363 whole entry): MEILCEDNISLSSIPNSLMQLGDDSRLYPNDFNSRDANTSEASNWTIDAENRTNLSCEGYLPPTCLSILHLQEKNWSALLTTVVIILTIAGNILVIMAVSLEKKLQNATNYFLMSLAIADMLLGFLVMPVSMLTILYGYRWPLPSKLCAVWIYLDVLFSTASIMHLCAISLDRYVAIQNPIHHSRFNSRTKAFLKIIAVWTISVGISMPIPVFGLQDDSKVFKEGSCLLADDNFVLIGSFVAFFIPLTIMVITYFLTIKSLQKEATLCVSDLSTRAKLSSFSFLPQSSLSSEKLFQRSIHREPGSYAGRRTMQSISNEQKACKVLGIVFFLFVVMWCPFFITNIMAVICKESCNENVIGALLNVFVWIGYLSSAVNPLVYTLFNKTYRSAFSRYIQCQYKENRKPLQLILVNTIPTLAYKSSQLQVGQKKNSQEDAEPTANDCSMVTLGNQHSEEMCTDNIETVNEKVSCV
Galanin receptor type 3, sequence (O60755 whole entry): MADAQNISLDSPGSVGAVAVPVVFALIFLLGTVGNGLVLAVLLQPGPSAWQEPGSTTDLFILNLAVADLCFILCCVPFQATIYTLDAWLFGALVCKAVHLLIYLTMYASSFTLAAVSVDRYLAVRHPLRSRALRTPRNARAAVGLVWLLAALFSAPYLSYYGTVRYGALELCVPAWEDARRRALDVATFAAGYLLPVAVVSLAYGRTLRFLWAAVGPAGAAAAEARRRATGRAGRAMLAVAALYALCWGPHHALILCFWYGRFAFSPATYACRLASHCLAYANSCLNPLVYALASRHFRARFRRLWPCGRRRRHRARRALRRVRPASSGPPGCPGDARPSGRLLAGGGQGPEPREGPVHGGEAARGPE

Structure (SMILES): C[C@H](NC(=O)C[C@H]1CC[C@@H]2[C@@H](COc3ccc(NS(=O)(=O)c4ccc(Cl)cc4)cc3C(=O)N2C)O1)c1ccccc1
AC50 [1]: 18.2 µM (active)
AC50 [2]: 29.5 µM (active)

Structure (SMILES): O=C(NCCN1CCC2(CC1)C(=O)NCN2c1ccccc1)c1ccccc1F
AC50 (Vero): 31.5 µM (active)

Structure (SMILES): CC(C)N1C[C@@H](CN(C)Cc2ccc(Cl)cc2)Oc2c(NC(=O)c3ccnn3C)cccc2C1=O
AC50 [3]: 0.334 µM (active)

IC50 (Fatty acid synthase): 35.3 µM (inactive)
Structure (SMILES): CCCCC(=O)Nc1nc(-c2ccc(C(=O)N3CCOCC3)cc2)cs1

IC50 [4]: 65.5 µM (inconclusive)
Structure (SMILES): COc1ccc(C(=O)NCc2cc(C)n(C)n2)cc1OC1CCN(C(C)C)CC1

Structure (SMILES): O=S(=O)(c1ccc(F)cc1)N1C[C@@H]2N[C@H](C1)[C@@H]2c1ccc(/C=C/c2ccccc2)cc1
AC50 [5]: 19.1 µM (active)

Structure (SMILES): CC(C)N1C[C@H](C)[C@@H](CN(C)C(=O)OC(C)(C)C)Oc2c(NC(=O)c3ccncc3)cccc2C1=O
IC50 [6]: > 20 µM (inactive)

IC50 (Large T antigen): > 100 µM (active)
AC50 [7]: 3.83 µM (active)
IC50 (Protein skinhead-1): > 100 µM (inactive)
EC50 (Mu-type opioid receptor): 92.5 µM (inactive)
EC50 [8]: 8.14 µM (active)
IC50 (Galanin receptor type 3): 3.83 µM (active)
EC50 [9]: 6.54 µM (active)
Structure (SMILES): Oc1cc2c(c(Cl)c1O)CCNCC2c1ccccc1 (stereo unspecified)
IC50 [10]: > 29.9 µM (inactive)
